These results are taken from ChEMBL document CHEMBL4715829, “Heterodimeric Rifampicin-Tobramycin conjugates break intrinsic resistance of Pseudomonas aeruginosa to doxycycline and chloramphenicol in vitro and in a Galleria mellonella in vivo model” (Eur J Med Chem, 2019).

Series [1] has as its system Klebsiella pneumoniae. The experiment in a line: Potentiation of doxycycline-induced antibacterial activity against Klebsiella pneumoniae ATCC 16381 assessed as fold change in doxycycline MIC at 9.8 uM incubated for 18 hrs in presence of doxycycline by broth microdilution assay relative to control. Format: functional.
The subject of series [2] is Pseudomonas aeruginosa. The experiment in a line: Antibacterial activity against Pseudomonas aeruginosa 100036 assessed as fractional inhibitory concentration index incubated for 18 hrs in presence of minocycline by broth microdilution assay. The format is functional. In general terms: Dilution methods test growth across graded concentrations, often in twofold steps.

The subject of series [3] is Pseudomonas aeruginosa. The experiment in a line: Antibacterial activity against Pseudomonas aeruginosa 91433 assessed as potentiation of doxycycline-induced antibacterial activity by measuring doxycycline MIC at 9.8 uM incubated for 18 hrs in presence of doxycycline by broth microdilution assay (reference value: 32 ug/ml). The format is functional.
Series [4] in a line: Toxicity in Galleria mellonella larvae assessed as larval survival at 200 mg/kg measured after 96 hrs. Format: organism-based. The conditions noted are these: in vivo.
Series [5] deals with Pseudomonas aeruginosa. The experiment in a line: Antibacterial activity against Pseudomonas aeruginosa 264-101354 assessed as fractional inhibitory concentration incubated for 18 hrs in presence of rifampicin by broth microdilution assay. Format: functional.
The subject of series [6] is Pseudomonas aeruginosa. The experiment in a line: Potentiation of doxycycycline-induced bactericidal activity against Pseudomonas aeruginosa PAO1 assessed as reduction in bacterial colonies at 4.9 to 9.8 microM incubated for upto 24 hrs in LB medium in presence of doxycycline followed by plating on agar plate and measured after 20 hrs by time-kill assay. The format is functional, organism-based. The conditions noted are these: dose 4.9-9.8 µM, time hrs <=44.

The subject of series [7] is Pseudomonas aeruginosa. The experiment in a line: Potentiation of chloramphenicol-induced antibacterial activity against Pseudomonas aeruginosa 262-101856 assessed as fold change in chloramphenicol MIC at 9.8 uM incubated for 18 hrs in presence of chloramphenicol by broth microdilution assay relative to control. Format: functional.
The subject of series [8] is Pseudomonas aeruginosa. The experiment in a line: Antibacterial activity against Pseudomonas aeruginosa 100036 assessed as potentiation of chloramphenicol-induced antibacterial activity by measuring chloramphenicol MIC at 9.8 uM incubated for 18 hrs in presence of chloramphenicol by broth microdilution assay (reference value: 1024 ug/ml). The format is functional.
For series [9], the system named is Pseudomonas aeruginosa. The experiment in a line: Antibacterial activity against Pseudomonas aeruginosa 260-97103 assessed as fractional inhibitory concentration index incubated for 18 hrs in presence of tigecycline by broth microdilution assay. The format is functional.
Series [10] concerns Pseudomonas aeruginosa. The experiment in a line: Antibacterial activity against Pseudomonas aeruginosa 91433 assessed as fractional inhibitory concentration index incubated for 18 hrs in presence of minocycline by broth microdilution assay. The format is functional.
In series [11] the test system is Pseudomonas aeruginosa. The experiment in a line: Antibacterial activity against Pseudomonas aeruginosa 114228 assessed as fractional inhibitory concentration incubated for 18 hrs in presence of minocycline by broth microdilution assay. The format is functional.
Series [12] relates to Pseudomonas aeruginosa. The experiment in a line: Antibacterial activity against Pseudomonas aeruginosa 259-96918 assessed as potentiation of chloramphenicol-induced antibacterial activity by measuring chloramphenicol MIC at 9.8 uM incubated for 18 hrs in presence of chloramphenicol by broth microdilution assay (reference value: 1024 ug/ml). Format: functional.
Series [13] deals with Pseudomonas aeruginosa. The experiment in a line: Potentiation of chloramphenicol-induced antibacterial activity against Pseudomonas aeruginosa 91433 assessed as fold change in chloramphenicol MIC at 9.8 uM incubated for 18 hrs in presence of chloramphenicol by broth microdilution assay relative to control. The format is functional.
For series [14], the system named is Pseudomonas aeruginosa. The experiment in a line: Antibacterial activity against Pseudomonas aeruginosa 264-101354 assessed as potentiation of chloramphenicol-induced antibacterial activity by measuring chloramphenicol MIC at 9.8 uM incubated for 18 hrs in presence of chloramphenicol by broth microdilution assay (reference value: 4096 ug/ml). The format is functional.

Series [15] deals with HepG2. The experiment in a line: Cytotoxicity against human HepG2 cells assessed as cell viability at 50 uM incubated for 48 hrs in presence of doxycycline by prestoblue assay. The note with it: hepg2, 48 h. The format is cell-based.
For series [16], the system named is Pseudomonas aeruginosa. The experiment in a line: Antibacterial activity against Pseudomonas aeruginosa 91433 assessed as fractional inhibitory concentration index incubated for 18 hrs in presence of rifampicin by broth microdilution assay. The format is functional.
Series [17] relates to Pseudomonas aeruginosa. The experiment in a line: Antibacterial activity against Pseudomonas aeruginosa 100036 assessed as fractional inhibitory concentration incubated for 18 hrs in presence of tigecycline by broth microdilution assay. The format is functional.
Series [18] is described as follows: Toxicity in Galleria mellonella larvae assessed as larval survival at 100 mg/kg measured after 96 hrs. The note with it: in vivo. Format: organism-based.
Series [19] deals with Enterobacter cloacae. The experiment in a line: Potentiation of doxycycline-induced antibacterial activity against Enterobacter cloacae ATCC 117029 assessed as fold change in doxycycline MIC at 9.8 uM incubated for 18 hrs in presence of doxycycline by broth microdilution assay relative to control. Format: functional.
Series [20] concerns Pseudomonas aeruginosa. The experiment in a line: Antibacterial activity against Pseudomonas aeruginosa 100036 assessed as reduction in bacterial growth by measuring chloramphenicol MIC at 4 ug/ml incubated for 18 hrs in presence of chloramphenicol by broth microdilution assay (reference value: 1024 ug/ml). The format is functional. The note with it: dose 4 µg/ml.
Series [21] deals with Pseudomonas aeruginosa. The experiment in a line: Antibacterial activity against Pseudomonas aeruginosa 100036 assessed as reduction in bacterial growth by measuring doxycycline MIC at 4 ug/ml incubated for 18 hrs in presence of doxycycline by broth microdilution assay (reference value: 64 ug/ml). Format: functional. The note with it: dose 4 µg/ml.
Series [22] deals with Pseudomonas aeruginosa. The experiment in a line: Antibacterial activity against Pseudomonas aeruginosa 114228 assessed as potentiation of doxycycline-induced antibacterial activity by measuring doxycycline MIC at 7.6 uM incubated for 18 hrs in presence of doxycycline by broth microdilution assay (reference value: 32 ug/ml). The format is functional.
Series [23] has as its system Pseudomonas aeruginosa. The experiment in a line: Antibacterial activity against Pseudomonas aeruginosa 260-97103 assessed as potentiation of doxycycline-induced antibacterial activity by measuring doxycycline MIC at 7.6 uM incubated for 18 hrs in presence of doxycycline by broth microdilution assay (reference value: 16 ug/ml). The format is functional.
Series [24] relates to Pseudomonas aeruginosa. The experiment in a line: Potentiation of chloramphenicol-induced antibacterial activity against Pseudomonas aeruginosa 262-101856 assessed as fold change in chloramphenicol MIC at 7.6 uM incubated for 18 hrs in presence of chloramphenicol by broth microdilution assay relative to control. Format: functional.
In series [25] the test system is Klebsiella pneumoniae. The experiment in a line: Potentiation of doxycycline-induced antibacterial activity against Klebsiella pneumoniae ATCC 16381 assessed as fold change in doxycycline MIC at 7.6 uM incubated for 18 hrs in presence of doxycycline by broth microdilution assay relative to control. The format is functional.
The subject of series [26] is Pseudomonas aeruginosa. The experiment in a line: Antibacterial activity against Pseudomonas aeruginosa 262-101856 assessed as reduction in bacterial growth by measuring chloramphenicol MIC at 8 ug/ml incubated for 18 hrs in presence of chloramphenicol by broth microdilution assay (reference value: 2048 ug/ml). The format is functional. The conditions noted are these: dose 8 µg/ml.

Series [27] relates to Pseudomonas aeruginosa. The experiment in a line: Antibacterial activity against Pseudomonas aeruginosa 264-101354 assessed as reduction in bacterial growth by measuring doxycycline MIC at 8 ug/ml incubated for 18 hrs in presence of doxycycline by broth microdilution assay (reference value: 64 ug/ml). Format: functional. The conditions noted are these: dose 8 µg/ml.
In series [28] the test system is Pseudomonas aeruginosa. The experiment in a line: Antibacterial activity against Pseudomonas aeruginosa 259-96918 assessed as reduction in bacterial growth by measuring chloramphenicol MIC at 8 ug/ml incubated for 18 hrs in presence of chloramphenicol by broth microdilution assay (reference value: 1024 ug/ml). The format is functional. The conditions noted are these: dose 8 µg/ml.

Series [29] concerns Pseudomonas aeruginosa. The experiment in a line: Antibacterial activity against wild type Pseudomonas aeruginosa PAO1 assessed as reduction in bacterial growth by measuring doxycycline MIC at 0.25 ug/ml incubated for 18 hrs in presence of doxycycline by broth microdilution assay (reference value: 16 ug/ml). Format: functional. The conditions noted are these: dose 0.25 µg/ml.

For series [30], the system named is Pseudomonas aeruginosa. The experiment in a line: Antibacterial activity against Pseudomonas aeruginosa 91433 assessed as fractional inhibitory concentration in presence of chloramphenicol incubated for 18 hrs by broth microdilution assay. Format: functional.
Series [31] relates to Pseudomonas aeruginosa. The experiment in a line: Antibacterial activity against Pseudomonas aeruginosa 260-97103 assessed as fractional inhibitory concentration incubated for 18 hrs in presence of chloramphenicol by broth microdilution assay. Format: functional.

Each structure is given as a SMILES string. Activity calls are given as the source filed them. The calls are words filed in the database; no cut-off is given here.

For the compound `CO[C@H]1/C=C/O[C@@]2(C)Oc3c(C)c(O)c4c(O)c(c(/C=N/N5CCN(Cc6cn(CCCCCCO[C@@H]7[C@@H](O[C@H]8O[C@H](CO)[C@@H](O)[C@H](N)[C@H]8O)[C@H](N)C[C@H](N)[C@H]7O[C@H]7O[C@H](CN)[C@@H](O)C[C@H]7N)nn6)CC5)c(O)c4c3C2=O)NC(=O)/C(C)=C\C=C\[C@H](C)[C@H](O)[C@@H](C)[C@@H](O)[C@@H](C)[C@H](OC(C)=O)[C@@H]1C.Cl.Cl.Cl.Cl.Cl`, the “fold change (FC)” value was determined as 0 in series [1], 4 in [7], 4 in series [13] and 0 in series [19]. Moreover, the “fractional inhibitory concentration index (FICI)” value in [2] is 0.13; in series [9], less than 0.16; in series [10] it was less than 0.25; in series [16] it was 1.13. The MIC in [3] worked out at 4 µg/mL; in [8], 4 µg/mL; in series [12], 256 µg/mL; in [14], 128 µg/mL. Moreover, the survival at 96 h in [4] amounted to 97%; in series [18] it was 100%. Moreover, the FIC in series [5] is 0.016; in [11], less than 0.031; in series [17], 0.004. In addition, the outcome in series [6] was Active. For the same compound, in [15], the Activity result was “Non-Toxic”.
For `CO[C@H]1/C=C/O[C@@]2(C)Oc3c(C)c(O)c4c(O)c(c(/C=N/N5CCN(C)CC5)c(O)c4c3C2=O)NC(=O)/C(C)=C\C=C\[C@H](C)[C@H](O)[C@@H](C)[C@@H](O)[C@@H](C)[C@H](OC(C)=O)[C@@H]1C` [RIFAMPIN], the results for the MIC in series [20] and in series [21] were 1020 µg/mL and 64 µg/mL, respectively.
On to `CO[C@H]1/C=C/O[C@@]2(C)Oc3c(C)c(O)c4c(O)c(c(/C=N/N5CCN(Cc6cn(CCCCCCCCCCCCO[C@@H]7[C@@H](O[C@H]8O[C@H](CO)[C@@H](O)[C@H](N)[C@H]8O)[C@H](N)C[C@H](N)[C@H]7O[C@H]7O[C@H](CN)[C@@H](O)C[C@H]7N)nn6)CC5)c(O)c4c3C2=O)NC(=O)/C(C)=C\C=C\[C@H](C)[C@H](O)[C@@H](C)[C@@H](O)[C@@H](C)[C@H](OC(C)=O)[C@@H]1C.O=C(O)C(F)(F)F.O=C(O)C(F)(F)F.O=C(O)C(F)(F)F.O=C(O)C(F)(F)F.O=C(O)C(F)(F)F`, for which the MIC was found to be 2 µg/mL in series [22] and 0.125 µg/mL in series [23]. Besides, the “fold change (FC)” value in series [24] is 4; in series [25], 0.
Turning to `NC[C@H]1O[C@H](O[C@H]2[C@H](O)[C@@H](O[C@H]3O[C@H](CO)[C@@H](O)[C@H](N)[C@H]3O)[C@H](N)C[C@@H]2N)[C@H](N)C[C@@H]1O` [TOBRAMYCIN], the MIC in series [26] came to 2050 µg/mL; in series [27] it was 64 µg/mL; in [28], 1020 µg/mL; in series [29], 8 µg/mL. The FIC in series [30] and in series [31] was 0.5 in each case.

Usually MIC stands for the lowest concentration that inhibits growth of the organism.
